# Results published in patent US12612391B2, “Cromolyn derivatives and uses thereof” (The General Hospital Corporation, priority 2020, dated 2026).
# Test system: BV2-CD33^WT cells
# Assay: Aβ42 uptake in microglial BV2-CD33^WT cells (Aβ42-specific ELISA of cell lysates)
# Type: cell-based
# Details: 100 μM; BV2-CD33 activated microglial cells; 3 hours pre-treatment, then 2 hours with Aβ42 peptide; vs DMSO control; FIG. 2
# Method: FIG. 2 is a plot showing Aβ42 uptake in microglial BV2-CD33^WT cells treated with DMSO as control or cromolyn derivatives (C1, C3-8) at different concentrations for 3 hours. Afterwards, cells were incubated with DMSO or cromolyn derivatives in the presence of the Aβ42 peptide for additional 2 hours. Cell lysates were analyzed for intracellular levels of Aβ42 using an Aβ42-specific ELISA kit.
smiles,measurement,value
"CC(=O)OCc1cc(=O)c2c(OCC(COc3cccc4oc(COC(C)=O)cc(=O)c34)OC(C)=O)cccc2o1 [Compound C7, Ac-Triol- Cromolyn]",microglial uptake of Aβ42,positive impact
